Data from US20250188102A1, “TRIAZINE COMPOUND, INTERMEDIATE THEREOF, PREPARATION METHOD THEREFOR AND USE THEREOF” (priority 2022, published 2025).
Read-outs that look alike come from different tables or passages of the source.

What was measured:
MERS Mpro protease = MERS Mpro protease (Middle East respiratory syndrome-related coronavirus (isolate United Kingdom/H123990006/2012) (MERS-CoV) (Betacoronavirus England 1), UniProt K9N7C7); assay: biochemical
in vitro [1] = format: cell-based; conditions: human
Description: (§1) Nine cell lines originated from different human tissues (Table 2) are selected to evaluate the cytotoxicity of the tested compounds. Sorafenib or Taxol are used as cytotoxic control compounds. The cells and compounds are added to the 96-well test plate. Cells are cultured in culture medium containing 10% FBS, 5% CO2 and 37° C. for 3 days, and then cell viability was detected by CellTiter-Glo reagent. The raw data are used for compound cytotoxicity calculations. The dose-response curves of the compounds are analyzed by GraphPad Prism software and CC50 values are calculated. The compound will be tested at 8 concentration points, 3-fold series dilution, and 3-compound pores.

in vitro [2] = format: cell-based; conditions: human; remark: listed apart in the source
Description: as §1

in vitro [3] = format: cell-based; conditions: human; remark: listed apart in the source
Description: as §1

in vitro [4] = format: cell-based; conditions: human; remark: listed apart in the source
Description: as §1

in vitro [5] = format: cell-based; conditions: human; remark: listed apart in the source
Description: as §1

in vitro [6] = format: cell-based; conditions: human; remark: listed apart in the source
Description: as §1

in vitro [7] = format: cell-based; conditions: human; remark: listed apart in the source
Description: as §1

in vitro [8] = format: cell-based; conditions: human; remark: listed apart in the source
Description: as §1

in vitro [9] = format: cell-based; conditions: human; remark: listed apart in the source
Description: as §1

in vivo = conditions: male, Sprague-Dawley, rat; for AUC(0-inf): AUC0-∞; for half-life: T1/2
in vitro [10] = format: in vitro ADME; conditions: rat, hepatocytes
in vitro [11] = format: in vitro ADME, people; conditions: human, hepatocytes
HKU1 Mpro protease = HKU1 Mpro protease (Human coronavirus HKU1 (isolate N1) (HCoV-HKU1), UniProt P0C6X2); format: biochemical; conditions: read-out: Enzymatic Determination of IC50 of compound by Mpro, HKU1
NL63 Mpro protease = NL63 Mpro protease (Human coronavirus NL63 (HCoV-NL63), UniProt P0C6X5); assay: Mpro enzymatic assay, other human coronaviruses: NL63; format: biochemical; conditions: read-out: Enzymatic Determination of IC50 of compound by Mpro, NL63
SARS-CoV-2 = conditions: read-out: viral inhibitory activity EC50, cited from earlier work
in vitro [12] = conditions: human
SARS-CoV-2 strain = assay: microbe, parasite or virus in culture; conditions: Severe acute respiratory syndrome coronavirus 2, read-out: EC50 of SARS-CoV-2 strain
[13] = liver microsomes; rat
in vitro [14] = conditions: rat, microsomes
[15] = rat, stated before the oral figures (intravenous per Table 11)
[16] = CCRF-CEM, 3 days, read-out: CC50
[17] = Colo-205, 3 days, read-out: CC50

NL63 Mpro protease, sequence (P0C6X5 2940-3242 limits assumed): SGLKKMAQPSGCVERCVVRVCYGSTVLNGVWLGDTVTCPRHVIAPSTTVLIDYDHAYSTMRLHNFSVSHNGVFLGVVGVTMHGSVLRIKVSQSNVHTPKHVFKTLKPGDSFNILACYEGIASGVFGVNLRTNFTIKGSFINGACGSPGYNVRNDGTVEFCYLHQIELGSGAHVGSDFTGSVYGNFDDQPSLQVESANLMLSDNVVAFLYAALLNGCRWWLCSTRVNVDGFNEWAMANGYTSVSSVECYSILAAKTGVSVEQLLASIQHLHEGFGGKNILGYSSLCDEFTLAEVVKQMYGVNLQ
MERS Mpro protease, sequence (K9N7C7 3248-3553 limits assumed): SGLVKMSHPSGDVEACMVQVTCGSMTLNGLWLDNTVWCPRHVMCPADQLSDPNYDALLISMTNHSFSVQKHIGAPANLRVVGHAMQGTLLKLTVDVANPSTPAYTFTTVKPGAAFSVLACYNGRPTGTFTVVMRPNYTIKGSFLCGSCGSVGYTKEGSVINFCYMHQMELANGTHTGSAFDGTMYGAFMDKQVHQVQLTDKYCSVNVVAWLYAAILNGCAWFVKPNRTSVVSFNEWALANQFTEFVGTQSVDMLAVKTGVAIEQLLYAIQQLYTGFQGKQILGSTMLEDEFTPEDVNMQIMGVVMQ
HKU1 Mpro protease, sequence (P0C6X2 3335-3637 limits assumed): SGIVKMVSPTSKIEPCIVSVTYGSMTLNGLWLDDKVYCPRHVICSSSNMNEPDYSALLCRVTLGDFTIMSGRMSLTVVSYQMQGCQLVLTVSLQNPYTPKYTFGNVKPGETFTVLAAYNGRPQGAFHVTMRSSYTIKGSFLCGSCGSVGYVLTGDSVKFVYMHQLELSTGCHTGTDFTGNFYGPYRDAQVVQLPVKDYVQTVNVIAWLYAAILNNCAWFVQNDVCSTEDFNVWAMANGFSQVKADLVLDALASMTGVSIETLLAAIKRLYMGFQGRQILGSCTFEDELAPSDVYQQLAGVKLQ

Cn1cnc(Cn2c(=O)[nH]/c(=N\c3cc4nn(C)cc4cc3Cl)n(Cc3cc(F)c(F)cc3F)c2=O)n1 [CVL201]
IC50 (MERS Mpro protease): 4960 µM | CC50 (in vitro [1]): > 100 µM | CC50 (in vitro [2]): > 100 µM | CC50 (in vitro [3]): > 100 µM | CC50 (in vitro [4]): > 100 µM | CC50 (in vitro [5]): > 100 µM | CC50 (in vitro [6]): > 100 µM | CC50 (in vitro [7]): > 100 µM | CC50 (in vitro [8]): > 100 µM | CC50 (in vitro [9]): > 100 µM | CC50 (Huh7 cells): >1 microns | AUC(0-inf) (in vivo; po, 5 mg/kg): 53900 ng·h/mL | Cmax (in vivo; po, 5 mg/kg): 4520 ng/mL | half-life (in vivo; po, 5 mg/kg): 2.89 h | Tmax (in vivo; po, 5 mg/kg): 4.67 h

[2H]C([2H])([2H])n1cnc(Cn2c(=O)[nH]/c(=N\c3cc4cn(C)nc4cc3Cl)n(Cc3cc(F)c(F)cc3F)c2=O)n1 [Compound I-2]
half-life at 0.5 μM (in vitro [10]): 89 h | AUC compared with S-217622 (rat, after oral administration): 144% | Cmax compared with S-217622 (rat, after oral administration): 145% | AUC compared with S-217622 [15]: 198% | Cmax compared with S-217622 [15]: 125% | T1/2 compared with S-217622 [15]: 124% | AUC(0-inf) (in vivo; iv, 0.5 mg/kg, SD rat): 7940 ng·h/mL | Cmax (in vivo; iv, 0.5 mg/kg, SD rat): 2880 ng/mL | half-life (in vivo; iv, 0.5 mg/kg): 3.36 h | Tmax (in vivo; iv, 0.5 mg/kg, SD rat): 0.03 h | AUC(0-inf) (in vivo; po, 5 mg/kg, SD rat): 65300 ng·h/mL | Cmax (in vivo; po, 5 mg/kg, SD rat): 6020 ng/mL | half-life (in vivo; po, 5 mg/kg): 3.04 h | Tmax (in vivo; po, 5 mg/kg, SD rat): 2.33 h

[2H]C([2H])(c1ncn(C)n1)n1c(=O)nc(Nc2cc3cn(C)nc3cc2Cl)n(Cc2cc(F)c(F)cc2F)c1=O [Compound I-3]
half-life at 0.5 μM (in vitro [10]): 8.28 h | half-life at 0.5 μM (in vitro [11]): 204 h

[2H]C([2H])([2H])n1cc2cc(Nc3nc(=O)n(Cc4ncn(C)n4)c(=O)n3Cc3cc(F)c(F)cc3F)c(Cl)cc2n1 [Compound I-5]
half-life at 0.5 μM (in vitro [11]): 29.9 h

[2H]C([2H])([2H])n1cnc(Cn2c(=O)n(COC(=O)OC(C)C)/c(=N\c3cc4cn(C)nc4cc3Cl)n(Cc3cc(F)c(F)cc3F)c2=O)n1 [Compound I-19]
AUC(0-inf) (in vivo; po, 5 mg/kg, SD rat): 70900 ng·h/mL | Cmax (in vivo; po, 5 mg/kg, SD rat): 6180 ng/mL | half-life (in vivo; po, 5 mg/kg): 2.91 h | Tmax (in vivo; po, 5 mg/kg, SD rat): 3.33 h

[2H]C([2H])([2H])n1cnc(Cn2c(=O)nc(Nc3cc4cn(C([2H])([2H])[2H])nc4cc3Cl)n(Cc3cc(F)c(F)cc3F)c2=O)n1 [Compound I-24]
AUC(0-inf) (in vivo; po, 5 mg/kg, SD rat): 58300 ng·h/mL | Cmax (in vivo; po, 5 mg/kg, SD rat): 5210 ng/mL | half-life (in vivo; po, 5 mg/kg): 3.51 h | Tmax (in vivo; po, 5 mg/kg, SD rat): 4 h

O=c1nc(NO)ccn1[C@@H]1O[C@H](CO)[C@@H](O)[C@H]1O [EIDD-1931]
CC50 (Huh7 cells): >10 microns

CC(C)C[C@H](NC(=O)OCc1ccccc1)C(=O)N[C@@H](CC1CCNC1=O)C(O)S(=O)(=O)O (some centres unmarked) [GC-376]
IC50 (HKU1 Mpro protease): 0.022 µM | IC50 (NL63 Mpro protease): 0.107 µM

CC(C)(C)[C@H](NC(=O)C(F)(F)F)C(=O)N1C[C@H]2[C@@H]([C@H]1C(=O)N[C@H](C#N)C[C@@H]1CCNC1=O)C2(C)C [PF-07321332]
EC50 (SARS-CoV-2; A549 cells expressing ACE2 protein): 0.056 µM | EC50 (SARS-CoV-2; HeLa cells expressing ACE2 protein): 0.099 µM | EC50 (SARS-CoV-2; human airway epithelial cells): 0.062 µM

CC(=O)O[C@H]1C(=O)[C@@]2(C)[C@H]([C@H](OC(=O)c3ccccc3)[C@]3(O)C[C@H](OC(=O)[C@H](O)[C@@H](NC(=O)c4ccccc4)c4ccccc4)C(C)=C1C3(C)C)[C@]1(OC(C)=O)CO[C@@H]1C[C@@H]2O [Pacitaxel]
CC50 (in vitro [5]; A375, 3 days, read-out: CC50): 0.0089 µM | CC50 (in vitro [6]; Molt-4, 3 days, read-out: CC50): 0.0027 µM | CC50 (in vitro [7]; HEp2, 3 days, read-out: CC50): 0.03 µM | CC50 (in vitro [8]; HIHeLa, 3 days, read-out: CC50): 0.02 µM | CC50 (in vitro [9]; [16]): 0.0034 µM

CCC(CC)COC(=O)[C@H](C)N[P@](=O)(OC[C@H]1O[C@@](C#N)(c2ccc3c(N)ncnn23)[C@H](O)[C@@H]1O)Oc1ccccc1 [Remdesivir]
CC50 (Huh7 cells): >1 microns

C=C(C)[C@H]1Cc2c(ccc3c2O[C@@H]2COc4cc(OC)c(OC)cc4[C@@H]2C3=O)O1 [Rotenone, reference compound]
ratio (CC50 Glu/CC50 Gal) (HepG2 cells; human): 91.7 | CC50 (in vitro [12]; galactose culture HepG2 CC50): 0.03 µM | CC50 (in vitro [12]; glucose culture HepG2 CC50): 2.33 µM

O=C(O)/C=C/C(=O)O.[2H]C([2H])([2H])n1cnc(Cn2c(=O)[nH]/c(=N\c3cc4cn(C)nc4cc3Cl)n(Cc3cc(F)c(F)cc3F)c2=O)n1 [SHEN211]
CC50 (in vitro [1]; [17]): > 100 µM | CC50 (in vitro [2]; HepG2, 3 days, read-out: CC50): > 100 µM | CC50 (in vitro [3]; HEK293, 3 days, read-out: CC50): > 100 µM | CC50 (in vitro [4]; MRC-5, 3 days, read-out: CC50): > 100 µM | CC50 (in vitro [5]; A375, 3 days, read-out: CC50): > 100 µM | CC50 (in vitro [6]; Molt-4, 3 days, read-out: CC50): > 100 µM | CC50 (in vitro [7]; HEp2, 3 days, read-out: CC50): > 100 µM | CC50 (in vitro [8]; HIHeLa, 3 days, read-out: CC50): > 100 µM | CC50 (in vitro [9]; [16]): > 100 µM | CC50 (Huh7 cells): >1 microns | mitochondrial toxicity to human HepG2 cells (HepG2 cells): more than 200 μM | difference between the CC50 and EC50 (HepG2 cells; human): more than 476 times | AUC(0-inf) (in vivo; po, 5 mg/kg, SD rat): 45500 ng·h/mL | Cmax (in vivo; po, 5 mg/kg, SD rat): 4710 ng/mL | half-life (in vivo; po, 5 mg/kg): 3.22 h | Tmax (in vivo; po, 5 mg/kg, SD rat): 2 h | CC50 (in vitro [12]; galactose culture HepG2 CC50): 206 µM | CC50 (in vitro [12]; glucose culture HepG2 CC50): 202 µM | EC50 (SARS-CoV-2 strain): 0.084 to 0.21 µM

[2H]C([2H])([2H])n1cnc(Cn2c(=O)[nH]/c(=N\c3cc4cn(C)nc4cc3Cl)n(Cc3cc(F)c(F)cc3F)c2=O)n1 [SHEN212]
AUC0-∞ (SD rat, PO, 5.0 mg/kg): 62126.14 ng·h/mL | Tmax (SD rat, PO, 5.0 mg/kg): 3.67 h | AUC compared with S-217 fumaric acid eutectic group (rat, PO): 115% | AUC compared with S-217622 fumaric acid coproduct combined with niacinamide group (rat, PO): 124% | Cmax compared with S-217 fumaric acid eutectic group (rat, PO): 132% | Cmax compared with S-217622 fumaric acid coproduct combined with niacinamide group (rat, PO): 123% | T1/2 compared with S-217622 fumaric acid coproduct combined with niacinamide group (rat, PO): 121%

CNC(=O)c1cc(Oc2ccc(NC(=O)Nc3ccc(Cl)c(C(F)(F)F)c3)cc2)ccn1 [Sorafenib]
CC50 (in vitro [1]; [17]): 8.72 µM | CC50 (in vitro [2]; HepG2, 3 days, read-out: CC50): 5.32 µM | CC50 (in vitro [3]; HEK293, 3 days, read-out: CC50): 5.58 µM | CC50 (in vitro [4]; MRC-5, 3 days, read-out: CC50): 13.8 µM

C[C@]12CC[C@H]3[C@@H](CCC4=CC(=O)CC[C@@]43C)[C@@H]1CC[C@@H]2O [Testosterone]
Cl [13]: 3.28 L/h/kg | Cla [13]: 6112.8 µL/min/mg | Clape [13]: 660.186 L/h/kg | half-life (in vitro [14]): 36 s
